Values of other authors as cited in US10945947B2, “Formulations for intravenous administration” (GLAXOSMITHKLINE INTELLECTUAL PROPERTY (NO.2) LIMITED, priority 2015, dated 2021).
Where a name gives a salt, the structure may show the parent alone.

Conditions: at a higher pH, after oral administration

Cc1c(F)cccc1NC(=O)Nc1ccc(Cl)c(S(=O)(=O)[C@H]2CCCNC2)c1O [hydrobromide salt of danirixin]
solubility and dissolution profiles compared to the free base: improved solubility and dissolution profiles
